Reference: ChEMBL document CHEMBL6121066, “Structure-Activity Relationship Studies of DNA Methyltransferase 1 Monovalent Degraders” (J Med Chem, 2025)
Blank lines part the entries; values can stand above or below the compound they belong to. The source made the active and inactive calls. The rule behind the calls is not given here.

Assays:
[1] = tested on: HCT-116; assay: Induction of molecular glue effect mediated DNMT1 degradation in human HCT-116 cells assessed as reduction in DNMT1 protein level by measuring maximal efficacy at 1 uM incubated for 24 hrs by Western blot analysis relative to control; assay type: cell-based
[2] = (§1) Induction of molecular glue effect mediated DNMT1 degradation in human HCT-116 cells assessed as reduction in DNMT1 protein level incubated for 24 hrs by Western blot analysis; assay type: cell-based; conditions: HCT-116, 24 h
[3] = tested on: HCT-116; assay: Induction of molecular glue effect mediated DNMT1 degradation in human HCT-116 cells assessed as reduction in DNMT1 protein level at 500 nM measured after 24 hrs by Western blot analysis relative to control; assay type: cell-based; design: scale not given: the % may be the effect or the level left
[4] = tested on: HCT-116; assay: Induction of molecular glue effect mediated DNMT1 degradation in human HCT-116 cells transfected with NEDD4 siRNA assessed as reduction in DNMT1 protein level at 100 nM measured after 24 hrs by Western blot analysis; assay type: cell-based
[5] = tested on: HCT-116; assay: Antiproliferative activity against human HCT-116 cells assessed as inhibition of cell growth upto 15 uM incubated for 7 days by CCK8 assay relative to control; assay type: functional; conditions: time 7 day, up to 15 µM
[6] = tested on: HCT-116; assay: Induction of molecular glue effect mediated DNMT1 degradation in human HCT-116 cells assessed as reduction in DNMT1 protein level at 100 nM preincubated with TRAF6 inhibitor C25-140 for 2 hrs followed by compound addition and measured after 24 hrs by Western blot analysis; assay type: cell-based
[7] = tested on: MV4-11; assay: Antiproliferative activity against human MV4-11 cells assessed as inhibition of cell growth at 0.177 to 15 uM incubated for 7 days by CCK8 assay; assay type: functional, cell-based; conditions: dose 0.177-15 µM, time 7.0 day
[8] = tested on: NCI-H1299; assay: Induction of molecular glue effect mediated DNMT1 degradation in human NCI-H1299 cells assessed as reduction in DNMT1 protein level at 100 nM preincubated with MLN4924 for 2 hrs followed by compound addition and measured after 24 hrs by Western blot analysis; assay type: cell-based
[9] = tested on: MDA-MB-468; assay: Effect on DNMT1 mRNA level in human MDA-MB-468 cells at 500 nM incubated for 24 hrs by RT-qPCR analysis; assay type: functional, cell-based
[10] = tested on: HCT-116; assay: Induction of molecular glue effect mediated DNMT3B degradation in human HCT-116 cells assessed as reduction in DNMT3B protein level at 500 nM incubated for 24 hrs by Western blot analysis; assay type: cell-based
[11] = tested on: HCT-116; assay: Induction of molecular glue effect mediated DNMT1 degradation in human HCT-116 cells assessed as reduction in DNMT1 protein level by measuring half-life at 500 nM preincubated with cycloheximide for 2 hrs followed by compound administration and measured after 24 hrs by Western blot analysis; assay type: cell-based
[12] = tested on: NCI-H1299; assay: Effect on DNMT1 mRNA level in human NCI-H1299 cells at 500 nM incubated for 24 hrs by RT-qPCR analysis; assay type: functional, cell-based
[13] = tested on: HCT-116; assay: Induction of molecular glue effect mediated DNMT1 degradation in human HCT-116 cells assessed as reduction in DNMT1 protein level at 100 nM preincubated with MG132 for 2 hrs followed by compound addition and measured after 24 hrs by Western blot analysis; assay type: cell-based
[14] = tested on: HCT-116; assay: Induction of molecular glue effect mediated DNMT1 degradation in human HCT-116 cells transfected with WWP1 siRNA assessed as reduction in DNMT1 protein level at 100 nM measured after 24 hrs by Western blot analysis; assay type: cell-based
[15] = tested on: HCT-116; assay: Induction of molecular glue effect mediated DNMT1 degradation in human HCT-116 cells assessed as reduction in DNMT1 protein level at 500 nM measured after 2 hrs by Western blot analysis relative to control; assay type: cell-based; design: scale not given: the % may be the effect or the level left
[16] = tested on: NCI-H1299; assay: Induction of molecular glue effect mediated DNMT1 degradation in human NCI-H1299 cells assessed as reduction in DNMT1 protein level at 100 nM preincubated with MG132 for 2 hrs followed by compound addition and measured after 24 hrs by Western blot analysis; assay type: cell-based
[17] = tested on: HCT-116; assay: Induction of molecular glue effect mediated DNMT1 degradation in human HCT-116 cells assessed as reduction in DNMT1 protein level at 500 nM by Western blot analysis; assay type: cell-based; conditions: time 2-24 hrs
[18] = tested on: HCT-116; assay: as §1; assay type: cell-based
[19] = tested on: HCT-116; assay: Induction of molecular glue effect mediated DNMT1 degradation in human HCT-116 cells assessed as reduction in DNMT1 protein level at 100 nM preincubated with MLN4924 for 2 hrs followed by compound addition and measured after 24 hrs by Western blot analysis; assay type: cell-based
[20] = tested on: HCT-116; assay: Induction of molecular glue effect mediated DNMT1 degradation in human HCT-116 cells assessed as reduction in DNMT1 protein level at 100 nM preincubated with TAK-243 for 2 hrs followed by compound addition and measured after 24 hrs by Western blot analysis; assay type: cell-based
[21] = tested on: HCT-116; assay: Induction of molecular glue effect mediated DNMT1 degradation in human HCT-116 cells assessed as reduction in DNMT1 protein level at 100 nM preincubated with lysosome inhibitor CQ for 2 hrs followed by compound addition and measured after 24 hrs by Western blot analysis; assay type: cell-based
[22] = tested on: HCT-116; assay: Induction of molecular glue effect mediated DNMT1 degradation in human HCT-116 cells transfected with UHRF1 siRNA assessed as reduction in DNMT1 protein level at 100 nM measured after 24 hrs by Western blot analysis; assay type: cell-based
[23] = tested on: HCT-116; assay: Induction of molecular glue effect mediated DNMT3A degradation in human HCT-116 cells assessed as reduction in DNMT3A protein level at 500 nM incubated for 24 hrs by Western blot analysis; assay type: cell-based
[24] = tested on: HCT-116; assay: Downregulation of DNMT1 protein level in human HCT-116 cells at 1 uM incubated for 12 hrs by MS-based global proteomic analysis; assay type: functional, cell-based
[25] = tested on: HCT-116; assay: Induction of molecular glue effect mediated DNMT1 degradation in human HCT-116 cells transfected with Smurf2 siRNA assessed as reduction in DNMT1 protein level at 100 nM measured after 24 hrs by Western blot analysis; assay type: cell-based
[26] = tested on: HCT-116; assay: Effect on DNMT1 mRNA level in human HCT-116 cells at 500 nM incubated for 24 hrs by RT-qPCR analysis; assay type: functional, cell-based
[27] = tested on: MDA-MB-468; assay: Induction of molecular glue effect mediated DNMT1 degradation in human MDA-MB-468 cells assessed as reduction in DNMT1 protein level at 100 nM preincubated with MG132 for 2 hrs followed by compound addition and measured after 24 hrs by Western blot analysis; assay type: cell-based
[28] = tested on: MDA-MB-468; assay: Induction of molecular glue effect mediated DNMT1 degradation in human MDA-MB-468 cells assessed as reduction in DNMT1 protein level at 100 nM preincubated with MLN4924 for 2 hrs followed by compound addition and measured after 24 hrs by Western blot analysis; assay type: cell-based
[29] = tested on: HCT-116; assay: Induction of molecular glue effect mediated DNMT1 degradation in human HCT-116 cells assessed as reduction in DNMT1 protein level at 100 nM preincubated with heclin for 2 hrs followed by compound addition and measured after 24 hrs by Western blot analysis; assay type: cell-based

DC50 [2]: 107 nM
SMILES: CCc1c(C#N)c(SC(C(N)=O)c2ccccc2)nc(N2CCN(C(C)=O)CC2)c1C#N (stereo unspecified)
Emax [1]: 87%

DC50 [2]: 42 nM
SMILES: CCc1c(C#N)c(SC(C(N)=O)c2ccccc2)nc(N2CCN(C(=O)c3ccco3)CC2)c1C#N (stereo unspecified)
Emax [1]: 94%

DC50 [2]: 714 nM
SMILES: CCc1c(C#N)c(SC(C(N)=O)c2ccccc2)nc(N2CCN(C(=O)c3cc4ccccc4s3)CC2)c1C#N (stereo unspecified)
Emax [1]: 74%

DC50 [2]: 405 nM
SMILES: CCc1c(C#N)c(SC(C(N)=O)c2ccccc2)nc(N2CCN(C(=O)c3ccc(C(C)C)s3)CC2)c1C#N (stereo unspecified)
Emax [1]: 71%

DC50 [2]: 89 nM
SMILES: CCc1c(C#N)c(SC(C(N)=O)c2ccccc2)nc(N2CCN(C(=O)c3nccs3)CC2)c1C#N (stereo unspecified)
Emax [1]: 90%

Continued, compound first:

SMILES: CCc1c(C#N)c(S[C@@H](C(N)=O)c2ccccc2)nc(N(C)C)c1C#N
Emax [1]: 89%

SMILES: CCc1c(C#N)c(SC(C(N)=O)c2ccccc2)nc(N2CCNC(=O)C2)c1C#N (stereo unspecified)
DC50 [2]: 534 nM
Emax [1]: 65%

SMILES: CCc1c(C#N)c(SC(C(N)=O)c2ccccc2)nc(N2CCN(C(=O)C3CCCCCC3)CC2)c1C#N (stereo unspecified)
DC50 [2]: 175 nM
Emax [1]: 87%

SMILES: CCc1c(C#N)c(SC(C(N)=O)c2ccccc2)nc(N2CCN(C(=O)C(C)(C)C)CC2)c1C#N (stereo unspecified)
DC50 [2]: 63 nM
Emax [1]: 88%

SMILES: CCc1c(C#N)c(SC(C(N)=O)c2ccccc2)nc(N2CCN(C(=O)c3ccc(Br)cc3)CC2)c1C#N (stereo unspecified)
DC50 [2]: 563 nM
Emax [1]: 79%

SMILES: CCc1c(C#N)c(SC(C(N)=O)c2ccccc2)nc(N2CCC(NC(=O)C34CC5CC(CC(C5)C3)C4)CC2)c1C#N (stereo unspecified)
DC50 [2]: 35 nM
Emax [1]: 92%

SMILES: CCc1c(C#N)c(SC(C(N)=O)c2ccccc2)nc(N2CCNC(=O)CC2)c1C#N (stereo unspecified)
DC50 [2]: 819 nM
Emax [1]: 58%

SMILES: CCc1c(C#N)c(SC(C(N)=O)c2ccccc2)nc(N2CCNCC2)c1C#N (stereo unspecified)
DC50 [2]: 184 nM
Emax [1]: 78%

SMILES: CCc1c(C#N)c(SC(C(N)=O)c2ccccc2)nc(N(C)CCNC(C)=O)c1C#N (stereo unspecified)
DC50 [2]: 753 nM
Emax [1]: 56%

SMILES: CCc1c(C#N)c(SC(C(N)=O)c2ccccc2)nc(N2CCN(C(=O)C34CC5CC(CC(C5)C3)C4)CC2)c1C#N (stereo unspecified)
DC50 [2]: 409 nM
Emax [1]: 80%

SMILES: CCc1c(C#N)c(SC(C(N)=O)c2ccccc2)nc(N(C)CCN)c1C#N (stereo unspecified)
DC50 [2]: 78 nM
Emax [1]: 79%

SMILES: CCc1c(C#N)c(SC(C(N)=O)c2ccccc2)nc(N2CCC(NC(=O)C(C)(C)C)CC2)c1C#N (stereo unspecified)
DC50 [2]: 39 nM
Emax [1]: 90%

SMILES: CCc1c(C#N)c(SC(C(N)=O)c2ccccc2)nc(N2CCC(N)CC2)c1C#N (stereo unspecified)
Activity [3]: 100%
Activity [4]: Active
inhibition (INH) [5]: <50%
Activity [6]: Active
Activity [7]: Active
Activity [8]: Active
Activity [9]: inactive
Activity [10]: inactive
T1/2 [11]: < 4 h
Activity [12]: inactive
Activity [13]: inactive
Activity [14]: Active
Activity [15]: < 30%
Activity [16]: inactive
Activity [17]: Time-dependent-effect
Activity [18]: Dose-dependent-effect
Activity [19]: Active
Activity [20]: inactive
Activity [21]: Active
Activity [22]: Not active; Partial Rescue Of Degradation Observed
Activity [23]: inactive
Activity [24]: Active
Activity [25]: Active
Emax [1]: 89%
Activity [26]: inactive
Activity [27]: inactive
Activity [28]: Active
Activity [29]: Not active; Partial Rescue Of Degradation Observed
